Values belong to the molecule of their own block, whether it stands above or below them.
Tests used:
[1] = test system: A549 cells; assay: 15-HETE generation by IL-1β-treated A549 cells; assay type: cell-based, human; conditions: permeabilized IL-1β-treated A549 cells, arachidonic acid 20 μM
Description: FIG. 3 is a graph showing the relative chiralities of 15-HETE triggered by ASA. A549 cells (10^7 cells per flask) were exposed to IL-1β (1 ng/ml) for 24 h, treated with vehicle (0.1% vol/vol ethanol) (□) or ASA (▪) for 20 min and then incubated (30 min, 37° C.) in HBSS containing arachidonic acid (20 μM) and A23187 (5 μM). Products were chromatographed by RP-HPLC (as in FIG. 1B) and the region containing 15-HETE was collected, extracted with chloroform and treated with diazomethane. Chiral analysis was performed with a Bakerbond DNBPG (see Methods for details). Results are representative of two separate experiments showing similar results.
In incubations involving permeabilized A549 cells (prepared by a rapid freeze-thaw cycle), IL-1β-treated (1 ng/ml, 24 h) A549 cells (1.5×10^6 cells/ml) were pretreated for 20 min with either vehicle (0.1% EtOH), ASA (500 (M; used throughout), 5 (M 17-ODYA, an inhibitor of cytochrome P450, (Muerhoff A. S., et al. (1989) Prostaglandin and fatty acid ω and (ω-1)-oxidation in rabbit lung: acetylenic fatty acid mechanism-based inactivators as specific inhibitors. J Biol.Chem. 244: 749-756.), or […] Rev 5901 isomer, a 5-LO inhibitor, subjected to two cycles of rapid freezing in a dry ice-acetone bath and thawing to room temperature (full cycle <20 min), and incubated with arachidonic acid ([…] for 20 min at 37° C. in 4 ml of DPBS^2+. In experiments involving radiolabeled arachidonic acid, incubations were initiated with the addition of [^3H]-arachidonic acid (0.25 (Ci/ml) plus unlabeled arachidonic acid ([…] for 20 min at 37° C.
For time-course experiments involving the generation of 15-HETE from endogenous sources (see FIG. 2B), intact A549 cells were exposed to IL-1β (1 ng/ml) for up to 48 h and then treated with vehicle (containing 0.1% EtOH) or ASA for 20 min followed by addition of ionophore A23187 (5 μM) in 4 ml of HBSS for 30 min at 37° C.
The monohydroxy eicosanoids (i. e. 5-, 12- and 15-HETE) from A549 cells were analyzed using a Ultrasphere-ODS column (5 μm, 4.6 mm×25 cm) (Beckman Instruments, Fullerton, Calif.) was eluted with MeOH/H2O/acetic acid (65:35:0.01; v/v/v) as phase one (t0-20 min), and a linear gradient with MeOH/acetic acid (99.9:0.1, v/v) as phase two (20-45 min) at a flow rate of 1.0 ml/min. The R- and S-enantiomers of 15-HETE were resolved and identified using a chiral HPLC system similar to that reported by Hawkins et al. (1988). […] When indicated, generation of 15-HETE from endogenous sources was monitored by radioimmunoassay (RIA). […]

[2] = test system: HUVEC (putative LTD4 receptors); assay: 3H-LXA4 specific binding to HUVEC; set-up: species or system human
Description: Cell cultures and differentiation. HL-60 cells were seeded in RPMI medium supplemented with 100 U/ml penicillin, 100 μg/ml streptomycin, and 10% fetal calf serum (Hyclone, Logan, Utah), incubated at 37° C. with 5% CO2 atmosphere in 250 ml flasks. […] Human umbilical vein endothelial cells (HUVEC) maintained in culture third passage were obtained from Dr. M. Gimbrone (Brigham and Women's Hospital Department of Pathology).
Binding experiments with HUVEC cells were performed in 12 well plates with 3.5×10^5 cells/well. After 10 min, wells were washed twice with PBS and cell-associated label was recovered by adding glacial acetic acid (0.5 ml). Results obtained from these assays were submitted for further analysis using the Ligand program (Elsevier-Biosoft, Cambridge, UK).

[3] = target: T1, LXA4 specific binding sites of differentiated HL-60 cells (Homo sapiens, UniProt P25090); assay: 3H-LXA4 specific binding to differentiated HL-60 cells
T1 construct: endogenous in cells; host or cells: HL-60 cells differentiated with DMSO, retinoic acid or PMA; intact cells
T1 sequence (P25090 1-351): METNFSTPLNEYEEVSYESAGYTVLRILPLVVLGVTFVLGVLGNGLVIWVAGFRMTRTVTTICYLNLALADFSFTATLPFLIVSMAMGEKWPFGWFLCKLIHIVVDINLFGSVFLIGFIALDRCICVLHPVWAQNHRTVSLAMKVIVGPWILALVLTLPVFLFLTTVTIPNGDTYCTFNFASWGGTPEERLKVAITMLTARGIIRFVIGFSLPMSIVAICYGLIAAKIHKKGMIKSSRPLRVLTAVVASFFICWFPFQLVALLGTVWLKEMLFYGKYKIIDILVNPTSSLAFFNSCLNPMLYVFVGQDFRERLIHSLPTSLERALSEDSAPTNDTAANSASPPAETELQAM
Description: Preparation of [11,12-^3H]LXA4. Tritiation of 11,12-acetylenic LXA4 methyl ester was carried out under a custom tritiation service (NET-259:92-2326) by New England Nuclear (Boston, Mass.). Briefly, 11,12-acetylene methyl ester was characterized by UV absorbance and reverse-phase HPLC as in (Nicolaou, K. C. et al. (1985) J. Am. Chem. Soc. 107:7515) and exposed to tritium atmosphere in methylene chloride at room temperature. This incubation was stirred in the presence of Lindlar catalyst (1.0 mg from Fluka Chemicals) for˜1 h. The resulting mixture was stored in methanol and isolated using RP-HPLC. Tritiated products were chromatographed as methyl esters utilizing a gradient HPLC system equipped with a photodiode array rapid spectral detector (Serhan, C. N., Methods in Enzymology: Arachidonate Related Lipid Mediators, in Murphy R. C., Fitzpatrick, F. (eds.), vol. 187. Orlando, Fla., Academic, (1990), p. 167). This mixture contained both [11,12-^3H]LXA4 and [11,12-^3H]-11-trans-LXA4 methyl esters (˜1:3 ratio) as determined by coelution with synthetic standards. After RP-HPLC, fractions containing [11,12-^3H]LXA4 were collected, and extracted into ethyl acetate. The free acid was prepared by LiOH saponification (Fiore, S. et al. (1992) J. Biol. Chem. 267:16168). Material from these fractions, when injected into UV-electrochemical detection HPLC, gave greater than 90% of radioactivity associated with a tetraene-containing product that coeluted with synthetic LXA4. Materials that eluted with the retention time of authentic LXA4 in two HPLC systems were taken for binding experiments. The specific activity calculated for [11,12-^3H]LXA4 was 40.5 Ci/mmole.
Cell cultures and differentiation. HL-60 cells were seeded in RPMI medium supplemented with 100 U/ml penicillin, 100 μg/ml streptomycin, and 10% fetal calf serum (Hyclone, Logan, Utah), incubated at 37° C. with 5% CO2 atmosphere in 250 ml flasks. Individual flasks containing ˜[…] next received dimethyl sulfoxide (DMSO) (1.12% v/v, 120 h) or retinoic acid (RA) (1 μM, 120 h) or phorbol myristate acetate (PMA) (20 nM, 48 h). Before performing binding assays, cells were washed twice in phosphate buffered saline (PBS), Ca^2+- and Mg^2+-free, enumerated and suspended at 20×10^6 cells/ml in Tris buffer (10 mM), pH 7.4 (Fiore, S. et al.(1992) J. Biol. Chem. 267:16168). Nitro blue tetrazolium reduction was performed to monitor induction of polymorphonuclear phenotype as in (Imaizumi, M. and Breitman, T. R. (1986) Blood 67:1273), and cell adherence was determined for induction of macrophage-like phenotype (Collins, S. J. (1987) Blood 70:1273). Human umbilical vein endothelial cells (HUVEC) maintained in culture third passage were obtained from Dr. M. Gimbrone (Brigham and Women's Hospital Department of Pathology).
Ligand binding. ^3H-LXA4 and ^3H-LTB4 binding was performed essentially as in Fiore, S. et al.(1992) J. Biol. Chem. 267:16168. After suspending cells in Tris buffer 10 mM (pH 7.4, Ca^2+ 2.5 mM, Mg^2+ 1.2 mM), aliquots (0.5 ml) were incubated (20 min at 4° C.) with ^3H- ligands alone (0.3 nM) or in the presence of increasing concentrations of homoligands or other compounds (3-300 nM). The incubations were rapidly centrifuged (60 sec, 12,000 g) on silicon oil (d=1.028), and cell-associated radioactivity was determined by liquid scintillation counting (Wallac 1409, Pharmacia, Piscataway, N.J.). Binding experiments with HUVEC cells were performed in 12 well plates with 3.5×10^5 cells/well. After 10 min, wells were washed twice with PBS and cell-associated label was recovered by adding glacial acetic acid (0.5 ml). Results obtained from these assays were submitted for further analysis using the Ligand program (Elsevier-Biosoft, Cambridge, UK).

Compound: C#CCCCCCCCCCCCCCCCC(=O)O [17-ODYA, 17-octadecaynoic acid]
reduction in 15-HETE [1]: ~50%

competition of specific 3H-LXA4 binding [2]: effective in competing
Compound: CCCCC/C=C\C\C=C/C=C/C=C/[C@@H](SC[C@H](N)C(=O)NCC(=O)O)[C@@H](O)CCCC(=O)O [LTD4]

competition of specific 3H-LXA4 binding [2]: effective in competing
displacement of 3H-LXA4 specific binding ([3]; competition, competitor 300 nM where printed): did not displace
Compound: O=C(O)CCS[C@H](c1ccccc1CCCCCCCCc1ccccc1)[C@@H](O)C(=O)O [SKF 104353]

Kd [2]: 11 ± 2.6 nM
Kd ([3]; isotherm binding, 4° C., 10 min, 0.1-30 nM): 0.6 ± 0.3 nM
Compound: [3H]C(/C=C/C=C/[C@@H](O)[C@@H](O)CCCC(=O)O)=C([3H])/C=C/[C@@H](O)CCCCC [[11,12-^3H]LXA4]

Reference: US20030134901A1, “Lipoxin compounds and their use in treating cell proliferative disorders” (priority 1993, published 2003)
